Measured values taken from patent US10314806B2 (SICHUAN JIUZHANG BIOLOGICAL SCIENCE AND TECHNOLOGY CO., LTD., priority 2014, dated 2019).

Columns and labels:
Lewis lung cancer = experiment: Inhibition of mice-transplanted tumor of Lewis lung cancer C57BL/6; format: in vivo; settings: 12 times
Experimental: Animal C57BL/6 mice, body weight 13˜20 g, half male and half female.
Cell Lines Lewis cells were mice lung cancer cells, and grew adhering to the wall in RPMI-1640 media containing 10% calf serum, 100 U·ml^−1 penicillin, 100 μg·ml^−1 streptomycin, and were cultured in an incubator at 37° C. under 5% CO2, followed by changing the medium and subculturing every two or three days.
Viable cells were counted by trypan blue staining. Cell suspension was subcutaneously inoculated at the left forelimb armpit of mice at 0.2 ml/animal (containing about 1×10^7 cells), and after tumor grew to 1 cm×1 cm×1 cm, mice were used in experiment. Mice tumors were aseptically stripped, and washed with Hank's solution thrice, to remove blood, fat and necrotic tissues. Tumors were cut to broken pieces of 1 mm×1 mm×1 mm, and washed with Hank's solution twice, to which physiological saline was added at a ratio of (1 g:3 ml), and then ground in a glass homogenizer and filtered by 80-100 mesh sieve to make a suspension of single cell. Viable cells were counted by trypan blue staining.
On the second day after inoculation, a dosage of 0.2 ml·10 g^−1 was administrated to each group by peritoneal injection (ip) for successive 12 times, once a day. When the tumor weight in negative control group was more than 1.0 g (tumor volume being about 0.5 cm^3), the experiment was stopped, and mice were sacrificed by cervical vertebrae removal and weighed. Tumors were stripped to calculate inhibitory rate.

human brain glioma = experiment: Inhibition of mice-transplanted human brain glioma; format: in vivo; settings: 15 days, mice
Experimental: Human brain glioma cell lines were obtained from Key Laboratory of Transplant Engineering and Immunology, Ministry of health, West China Hospital, Sichuan University.
(1) Model establishment Mice were divided into groups, 10 mice for each group. The solution of brain glioblastoma cell lines was suitably diluted, and inoculated in cortex of left temporal lobe of mice, respectively.
Administration and intervention 24 h after inoculation, mice in each group were administrated by intraperitoneal injection. […] Each group was administrated for successive 15 days.
Determination of tumor inhibitory rate On the last day, the administration was stopped, and all mice were sacrificed and dissected. Tumor tissues were stripped and weighed. Tumor inhibitory rate %=(The mean tumor weight of control group−The mean tumor weight of drug groups)[The mean tumor weight of control group]×100%.
Statistical method The variance analysis of data was performed using the statistical program software package (SPSS13.0 for Windows), and p<0.05 was considered to be a statistically significant difference.

[1] = tested on: chemical liver injury (rat alcoholic fatty liver model); experiment: Protective effect on chemical liver injury (rat alcoholic fatty liver model); format: in vivo, rats; settings: 30 days; for GSH / SOD: liver homogenate; for ALT / AST: serum
Experimental: Experimental grouping and dose design: Female SD rats were randomly divided to groups, 10 rats for each group, […], 70 mg·kg^−1, 85 mg·kg^−1, 100 mg·kg^−1, 120 mg·kg^−1, 140 mg·kg^−1, 160 mg·kg^−1, 180 mg·kg^−1, […], together with a negative control group and 50% ethanol model control group. Liver injury model was induced by ethanol (analytical pure).
Determination of ALT, AST, TG in serum of rats; Determination of SOD, MDA, reduced glutathione (GSH) in liver homogenate.
Statistics of experimental data: Statistical analysis of experimental data was performed using software package of SPSS 19.0 for windows.

[2] = 1 mg·kg^−1 intraperitoneal injection
[3] = 5 mg·kg^−1 intraperitoneal injection
[4] = 30 mg·kg^−1 intraperitoneal injection
[5] = 40 mg·kg^−1 intraperitoneal injection
[6] = 70 mg·kg^−1 intraperitoneal injection
[7] = 80 mg·kg^−1 intraperitoneal injection
[8] = 90 mg·kg^−1 intraperitoneal injection
[9] = 100 mg·kg^−1 intraperitoneal injection

O=C(/C=C/c1ccc(O)c(O)c1)O[C@@H]1C[C@](O)(C(=O)O)C[C@@H](O)[C@H]1O [Commercially available chlorogenic acid, chlorogenic acid, reference compound]
Inhibitory rate (Lewis lung cancer; 1 mg·kg^−1 ip once a day): 3.2%
Tumor weight (Lewis lung cancer; 1 mg·kg^−1 ip once a day): 1.437 ± 0.466 g
Inhibitory rate (Lewis lung cancer; 5 mg·kg^−1 ip once a day): 6.6%
Tumor weight (Lewis lung cancer; 5 mg·kg^−1 ip once a day): 1.386 ± 0.398 g
Inhibitory rate (Lewis lung cancer; 10 mg·kg^−1 ip once a day): 23.5%
Inhibitory rate (Lewis lung cancer; 20 mg·kg^−1 ip once a day): 32.9%
Tumor weight (Lewis lung cancer; 20 mg·kg^−1 ip once a day): 0.996 ± 0.428 g
Inhibitory rate (Lewis lung cancer; 30 mg·kg^−1 ip once a day): 32.5%
Tumor weight (Lewis lung cancer; 30 mg·kg^−1 ip once a day): 1.001 ± 0.204 g
Inhibitory rate (Lewis lung cancer; 40 mg·kg^−1 ip once a day): 31.8%
Tumor weight (Lewis lung cancer; 40 mg·kg^−1 ip once a day): 1.012 ± 0.369 g
Inhibitory rate (Lewis lung cancer; 50 mg·kg^−1 ip once a day): 25.3%
Inhibitory rate (Lewis lung cancer; 60 mg·kg^−1 ip once a day): 21.6%
Inhibitory rate (Lewis lung cancer; 70 mg·kg^−1 ip once a day): 17.8%
Tumor weight (Lewis lung cancer; 70 mg·kg^−1 ip once a day): 1.220 ± 0.237 g
Inhibitory rate (Lewis lung cancer; 80 mg·kg^−1 ip once a day): 14.2%
Tumor weight (Lewis lung cancer; 80 mg·kg^−1 ip once a day): 1.273 ± 0.511 g
Inhibitory rate (Lewis lung cancer; 90 mg·kg^−1 ip once a day): 12.4%
Tumor weight (Lewis lung cancer; 90 mg·kg^−1 ip once a day): 1.300 ± 0.462 g
Inhibitory rate (Lewis lung cancer; 100 mg·kg^−1 ip once a day): 8.6%
Tumor weight (Lewis lung cancer; 100 mg·kg^−1 ip once a day): 1.356 ± 0.338 g
Inhibitmy rate (human brain glioma; [2]): 9.10%
Tumor weight (human brain glioma; [2]): 1.319 ± 0.245 g
Inhibitmy rate (human brain glioma; [3]): 11.16%
Tumor weight (human brain glioma; [3]): 1.289 ± 0.289 g
Inhibitmy rate (human brain glioma; 10 mg·kg^−1 intraperitoneal injection): 19.09%
Inhibitmy rate (human brain glioma; 20 mg·kg^−1 intraperitoneal injection): 24.12%
Inhibitmy rate (human brain glioma; [4]): 30.74%
Tumor weight (human brain glioma; [4]): 1.005 ± 0.225 g
Inhibitmy rate (human brain glioma; [5]): 31.91%
Tumor weight (human brain glioma; [5]): 0.988 ± 0.025 g
Inhibitmy rate (human brain glioma; 50 mg·kg^−1 intraperitoneal injection): 23.85%
Inhibitmy rate (human brain glioma; 60 mg·kg^−1 intraperitoneal injection): 22.47%
Inhibitmy rate (human brain glioma; [6]): 15.58%
Tumor weight (human brain glioma; [6]): 1.225 ± 0.534 g
Inhibitmy rate (human brain glioma; [7]): 12.13%
Tumor weight (human brain glioma; [7]): 1.275 ± 0.043 g
Inhibitmy rate (human brain glioma; [8]): 11.30%
Tumor weight (human brain glioma; [8]): 1.287 ± 0.323 g
Inhibitmy rate (human brain glioma; [9]): 7.79%
Tumor weight (human brain glioma; [9]): 1.338 ± 0.187 g
GSH ([1]; 10 mg·kg^−1 intragastric): 12.57 ± 3.84 mg/g
SOD ([1]; 10 mg·kg^−1 intragastric): 26.15 ± 2.45 nmol/mg
ALT ([1]; 10 mg·kg^−1 intragastric): 58.67 ± 2.89 U/L
AST ([1]; 10 mg·kg^−1 intragastric): 194.12 ± 6.32 U/L
GSH ([1]; 20 mg·kg^−1 intragastric): 13.62 ± 4.87 mg/g
SOD ([1]; 20 mg·kg^−1 intragastric): 27.24 ± 2.78 nmol/mg
ALT ([1]; 20 mg·kg^−1 intragastric): 57.41 ± 3.15 U/L
AST ([1]; 20 mg·kg^−1 intragastric): 193.89 ± 3.84 U/L
GSH ([1]; 35 mg·kg^−1 intragastric): 14.83 ± 5.47 mg/g
SOD ([1]; 35 mg·kg^−1 intragastric): 28.05 ± 1.45 nmol/mg
ALT ([1]; 35 mg·kg^−1 intragastric): 56.84 ± 2.87 U/L
AST ([1]; 35 mg·kg^−1 intragastric): 192.12 ± 5.12 U/L
GSH ([1]; 50 mg·kg^−1 intragastric): 15.57 ± 3.16 mg/g
SOD ([1]; 50 mg·kg^−1 intragastric): 29.14 ± 3.78 nmol/mg
ALT ([1]; 50 mg·kg^−1 intragastric): 56.88 ± 2.64 U/L
AST ([1]; 50 mg·kg^−1 intragastric): 190.56 ± 4.28 U/L
GSH ([1]; 70 mg·kg^−1 intragastric): 16.88 ± 2.78 mg/g
SOD ([1]; 70 mg·kg^−1 intragastric): 30.55 ± 2.05 nmol/mg
ALT ([1]; 70 mg·kg^−1 intragastric): 55.14 ± 1.65 U/L
AST ([1]; 70 mg·kg^−1 intragastric): 190.88 ± 3.65 U/L
GSH ([1]; 85 mg·kg^−1 intragastric): 17.37 ± 3.87 mg/g
SOD ([1]; 85 mg·kg^−1 intragastric): 31.04 ± 2.58 nmol/mg
ALT ([1]; 85 mg·kg^−1 intragastric): 53.24 ± 6.11 U/L
AST ([1]; 85 mg·kg^−1 intragastric): 198.87 ± 2.78 U/L
GSH ([1]; 100 mg·kg^−1 intragastric): 18.00 ± 3.21 mg/g
SOD ([1]; 100 mg·kg^−1 intragastric): 32.54 ± 3.47 nmol/mg
AST ([1]; 100 mg·kg^−1 intragastric): 187.12 ± 4.57 U/L
GSH ([1]; 120 mg·kg^−1 intragastric): 18.24 ± 6.48 mg/g
SOD ([1]; 120 mg·kg^−1 intragastric): 33.65 ± 5.01 nmol/mg
AST ([1]; 120 mg·kg^−1 intragastric): 184.25 ± 3.49 U/L
GSH ([1]; 140 mg·kg^−1 intragastric): 18.65 ± 3.48 mg/g
SOD ([1]; 140 mg·kg^−1 intragastric): 33.29 ± 2.68 nmol/mg
AST ([1]; 140 mg·kg^−1 intragastric): 182.36 ± 3.87 U/L
GSH ([1]; 160 mg·kg^−1 intragastric): 17.55 ± 4.87 mg/g
SOD ([1]; 160 mg·kg^−1 intragastric): 33.12 ± 1.75 nmol/mg
AST ([1]; 160 mg·kg^−1 intragastric): 180.15 ± 6.48 U/L
GSH ([1]; 180 mg·kg^−1 intragastric): 17.98 ± 5.94 mg/g
SOD ([1]; 180 mg·kg^−1 intragastric): 32.87 ± 2.16 nmol/mg
AST ([1]; 180 mg·kg^−1 intragastric): 179.54 ± 4.16 U/L
GSH ([1]; 200 mg·kg^−1 intragastric): 16.49 ± 4.21 mg/g
SOD ([1]; 200 mg·kg^−1 intragastric): 31.11 ± 2.54 nmol/mg
AST ([1]; 200 mg·kg^−1 intragastric): 185.48 ± 3.94 U/L
GSH ([1]; 220 mg·kg^−1 intragastric): 15.31 ± 3.46 mg/g
SOD ([1]; 220 mg·kg^−1 intragastric): 28.15 ± 2.04 nmol/mg
AST ([1]; 220 mg·kg^−1 intragastric): 188.34 ± 5.87 U/L
